Data as given in patent publication US9566282B2, “Methods for identifying and validating selective anti-cancer stem cell agents” (MCMASTER UNIVERSITY, priority 2011, dated 2017).

Tested on: v1O4 and H9 cells
Test: p53 staining of v1O4 and H9 cells
Type: cell-based, human
Description: Variant neoplastic stem cells (v1O4 cells) and normal H9 stem cells were fixed and stained for p53 expression following treatment with selective-activity compounds.

## CN(C)CCCN1c2ccccc2Sc2ccc(C(F)(F)F)cc21 [triflupromazine]
  activation of the p53 stress response (% cells positive for p53): little or no activation of the p53 stress response

## OCCN1CCN(CCCN2c3ccccc3Sc3ccc(Cl)cc32)CC1 [perphenazine]
  activation of the p53 stress response (% cells positive for p53): little or no activation of the p53 stress response

## OCCN1CCN(CCCN2c3ccccc3Sc3ccc(C(F)(F)F)cc32)CC1 [fluphenazine]
  activation of the p53 stress response (% cells positive for p53): little or no activation of the p53 stress response

## CN1CCN(CCCN2c3ccccc3Sc3ccc(C(F)(F)F)cc32)CC1 [trifluoperazine]
  activation of the p53 stress response (% cells positive for p53): little or no activation of the p53 stress response

## CN1CCN(CCCN2c3ccccc3Sc3ccc(Cl)cc32)CC1 [prochlorperazine]
  activation of the p53 stress response (% cells positive for p53): little or no activation of the p53 stress response
